Activity calls are given as the source filed them. The rule behind the calls is not given here.
What follows are compounds tested on Paracentrotus lividus (assay: Antimitotic activity against Paracentrotus lividus embryo assessed as cleavage alteration up to 4 uM […] followed by 45 to 60 mins before the first mitotic cycle completion by sea urchin embryo assay).
Format: functional, organism-based
For `COc1cc(C2C3=C(COC3=O)Nc3[nH]nc(C)c32)cc(OC)c1OC` (configuration not stated), the Activity was “inactive”. In the case of `COc1c(C2C3=C(COC3=O)Nc3[nH]nc(C)c32)cc2c(c1OC)OCO2` (configuration not stated), the Activity is reported as “inactive”. With `COc1cc(C2C3=C(COC3=O)Nc3cn(C)nc32)cc2c1OCO2` (configuration not stated) the Activity was “inactive”. With `COc1cc(C2C3=C(COC3=O)Nc3cn(C)nc32)cc(OC)c1OC` (configuration not stated) the Activity was “inactive”. `COc1cc(C2C3=C(COC3=O)Nc3cn(C)nc32)c(OC)c2c1OCO2` (configuration not stated) was tested, and the Activity was “inactive”. With `COc1c(C2C3=C(COC3=O)Nc3cn(C)nc32)cc2c(c1OC)OCO2` (configuration not stated) the Activity was “inactive”. With `COc1cc(C2C3=C(COC3=O)Nc3[nH]nc(C)c32)c(OC)c2c1OCO2` (configuration not stated) the Activity was “inactive”. In the case of `COc1cc(C2C3=C(COC3=O)Nc3[nH]ncc32)cc(OC)c1OC` (configuration not stated), the Activity is reported as “inactive”. For `COc1ccc(C2C3=C(COC3=O)Nc3[nH]ncc32)cc1` (configuration not stated), the Activity was “inactive”.

What follows are compounds tested on Paracentrotus lividus (assay: Antimitotic activity against Paracentrotus lividus embryo assessed as cleavage arrest up to 4 uM […] followed by 45 to 60 mins before the first mitotic cycle completion by sea urchin embryo assay).
Format: functional, organism-based
For `COc1cc(C2C3=C(COC3=O)Nc3[nH]nc(C)c32)cc(OC)c1OC` (configuration not stated), the Activity was “inactive”. For `COc1c(C2C3=C(COC3=O)Nc3[nH]nc(C)c32)cc2c(c1OC)OCO2` (configuration not stated), the Activity was “inactive”. In the case of `COc1cc(C2C3=C(COC3=O)Nc3cn(C)nc32)cc2c1OCO2` (configuration not stated), the Activity is reported as “inactive”. In the case of `COc1cc(C2C3=C(COC3=O)Nc3cn(C)nc32)cc(OC)c1OC` (configuration not stated), the Activity is reported as “inactive”. In the case of `COc1cc(C2C3=C(COC3=O)Nc3cn(C)nc32)c(OC)c2c1OCO2` (configuration not stated), the Activity is reported as “inactive”. In the case of `COc1c(C2C3=C(COC3=O)Nc3cn(C)nc32)cc2c(c1OC)OCO2` (configuration not stated), the Activity is reported as “inactive”. With `COc1cc(C2C3=C(COC3=O)Nc3[nH]nc(C)c32)c(OC)c2c1OCO2` (configuration not stated) the Activity was “inactive”. With `COc1cc(C2C3=C(COC3=O)Nc3[nH]ncc32)cc(OC)c1OC` (configuration not stated) the Activity was “inactive”. With `COc1ccc(C2C3=C(COC3=O)Nc3[nH]ncc32)cc1` (configuration not stated) the Activity was “inactive”.

Each compound was assayed on Paracentrotus lividus (assay: Antimitotic activity against Paracentrotus lividus embryo assessed as embryo spinning up to 4 uM […] followed by 45 to 60 mins before the first mitotic cycle completion by sea urchin embryo assay).
Format: functional, organism-based
With `COc1cc(C2C3=C(COC3=O)Nc3[nH]nc(C)c32)cc(OC)c1OC` (configuration not stated) the Activity was “inactive”. `COc1c(C2C3=C(COC3=O)Nc3[nH]nc(C)c32)cc2c(c1OC)OCO2` (configuration not stated) was tested, and the Activity was “inactive”. For `COc1cc(C2C3=C(COC3=O)Nc3cn(C)nc32)cc2c1OCO2` (configuration not stated), the Activity was “inactive”. For `COc1cc(C2C3=C(COC3=O)Nc3cn(C)nc32)cc(OC)c1OC` (configuration not stated), the Activity was “inactive”. `COc1cc(C2C3=C(COC3=O)Nc3cn(C)nc32)c(OC)c2c1OCO2` (configuration not stated) was tested, and the Activity was “inactive”. For `COc1c(C2C3=C(COC3=O)Nc3cn(C)nc32)cc2c(c1OC)OCO2` (configuration not stated), the Activity was “inactive”. In the case of `COc1cc(C2C3=C(COC3=O)Nc3[nH]nc(C)c32)c(OC)c2c1OCO2` (configuration not stated), the Activity is reported as “inactive”. In the case of `COc1cc(C2C3=C(COC3=O)Nc3[nH]ncc32)cc(OC)c1OC` (configuration not stated), the Activity is reported as “inactive”. In the case of `COc1ccc(C2C3=C(COC3=O)Nc3[nH]ncc32)cc1` (configuration not stated), the Activity is reported as “inactive”.

— ChEMBL document CHEMBL1914380, “Polyalkoxybenzenes from plants. 5. Parsley seed extract in synthesis of azapodophyllotoxins featuring strong tubulin destabilizing activity in the sea urchin embryo and cell culture assays” (J Med Chem, 2011)
